In patent US11970473B2, “Nootkatone derivatives and methods of using the same” (Arkansas State University—Jonesboro, priority 2021, dated 2024):
Values after ≈ are worked out from the molar mass of the structure shown. Each block holds one compound with its values, some of them ahead of it.

What was measured:
[1] = tested on: S. aureus ATCC 700699 and S. aureus ATCC 33591; test: Time-Kill Assay; type: cell-based; conditions: 4×MIC
Description: Time kill assay for test antibiotics against S. aureus ATCC 700699 and S. aureus ATCC 33591 strains was conducted using procedures published previously.^26 Briefly, a log-phase bacterial culture was diluted to ˜5×10^6 CFU/ml in warm sterile CAMHB broth and was exposed to antibiotics at 4×MIC concentration then incubated at 35° C. Samples of 20 μl were taken every 2 hours, diluted 10 fold to 10^−5, and the 6×6 drop plate method was performed to determine viable CFU/ml after 18-24 hours of incubation at 35° C. Each antibiotic time-kill assay was conducted in triplicate.

[2] = tested on: S. aureus ATCC 700699 (Sa99); test: Minimal inhibitory concentration (MIC) assay; type: cell-based; conditions: Staphylococcus aureus, ATCC700699; S. aureus ATCC 700699, antibiotic-resistant strain; read-out: Antimicrobial activity (MIC) Sa99
Description: (§1) Minimal inhibitory concentration (MIC) assay The standard microdilution method recommended by the Clinical and Laboratory Standards Institute (CLSI) was used to determine the MIC of the antibiotics. The starting concentration of compounds was 50 μg/ml and 2-fold dilution was done down the 96 honeycomb well plate column. The MIC assay was conducted in triplicates.

[3] = tested on: S. aureus BAA-2312 (Sa12); test: Minimal inhibitory concentration (MIC) assay; type: cell-based; conditions: Staphylococcus aureus, BAA2312; S. aureus BAA-2312, antibiotic-resistant strain; read-out: Antimicrobial activity (MIC) Sa12
Description: as §1

[4] = tested on: S. aureus ATCC 25923 (Sa23); test: Minimal inhibitory concentration (MIC) assay; type: cell-based; conditions: Staphylococcus aureus, ATCC25923; S. aureus ATCC 25923, antibiotic susceptible strain; read-out: Antimicrobial activity (MIC) Sa23
Description: as §1

[5] = tested on: Enterococcus faecalis ATCC 29212 (Es12); test: Minimal inhibitory concentration (MIC) assay; type: cell-based; conditions: ATCC29212; Enterococcus faecalis ATCC 29212; read-out: Antimicrobial activity (MIC) Es12
Description: as §1

[6] = tested on: Enterococcus faecium ATCC 700221 (Em21); test: Minimal inhibitory concentration (MIC) assay; type: cell-based; conditions: Enterococcus faecium, ATCC700221, Enterococcus faecium ATCC 700221; read-out: Antimicrobial activity (MIC) Em21
Description: as §1

[7] = tested on: S. aureus ATCC 33591 (Sa91); test: Minimal inhibitory concentration (MIC) assay; type: cell-based; conditions: Staphylococcus aureus, ATCC33591; S. aureus ATCC 33591, antibiotic-resistant strain; read-out: Antimicrobial activity (MIC) Sa91
Description: as §1

[8] = tested on: S. aureus ATCC 33592 (Sa92); test: Minimal inhibitory concentration (MIC) assay; type: cell-based; conditions: Staphylococcus aureus, ATCC33592; S. aureus ATCC 33592, antibiotic-resistant strain; read-out: Antimicrobial activity (MIC) Sa92
Description: as §1

[9] = tested on: B. subtilis ATCC 6623 (Bs); test: Minimal inhibitory concentration (MIC) assay; type: cell-based; conditions: Bacillus subtilis, ATCC6623; B. subtilis ATCC 6623; read-out: Antimicrobial activity (MIC) Bs
Description: as §1

[10] = tested on: treated bacteria (differentially expressed proteins); test: Quantitative proteomics: protein regulation by Compound 16 versus DMSO control
[11] = tested on: S. aureus strains; test: MIC, summary over S. aureus strains; type: cell-based
Description: as §1

[12] = tested on: MRSA persisters; test: Persister Cell Killing Assay
[13] = tested on: S. epidermidis 700296 (Se); test: Minimal inhibitory concentration (MIC) assay; type: cell-based; conditions: Staphylococcus epidermidis, S. epidermidis 700296; read-out: Antimicrobial activity (MIC) Se
Description: as §1

SMILES: C=C(C)[C@@H]1CC=C2c3sc(-c4ccc(O)c(O)c4)nc3C[C@@H](C)[C@]2(C)C1 [Compound 16]
- eliminated bacteria at [1]: 6 h
- time kill assay: mode of action [1]: bactericidal
- MIC [2]: 3.12 µg/mL (≈ 8.49 µM)
- MIC [3]: 3.12 µg/mL (≈ 8.49 µM)
- MIC [4]: 3.12 µg/mL (≈ 8.49 µM)
- MIC [5]: 12.5 µg/mL (≈ 34 µM)
- MIC [6]: 1.56 µg/mL (≈ 4.24 µM)
- MIC [7]: 6.25 µg/mL (≈ 17 µM)
- MIC [8]: 3.12 µg/mL (≈ 8.49 µM)
- MIC [9]: 12.5 µg/mL (≈ 34 µM)
- Log(FC) ([10]; gene SAV0307 (A0A0H3JQ49): Similar to outer membrane protein, ⅛ MIC): 1.313
- Log(FC) ([10]; gene SAV0486: Initiation-control protein YabA, ⅛ MIC): −1.076
- Log(FC) ([10]; gene SAV0831: Similar to thioredoxin, ⅛ MIC): −1.298
- Log(FC) ([10]; gene SAV1155 (A0A0H3JUX1): Fibrinogen-binding protein, ⅛ MIC): 4.341
- Log(FC) ([10]; gene SAV1291: Thiamine_BP domain-containing protein, ⅛ MIC): −1.399
- Log(FC) ([10]; gene SAV1556: ABC transporter MreA, ⅛ MIC): −1.267
- Log(FC) ([10]; gene SAV1615: UPF0473 protein SAV1615, ⅛ MIC): −1.3145
- Log(FC) ([10]; gene SAV1617: UPF0297 protein SAV1617, ⅛ MIC): −2.321
- Log(FC) ([10]; gene SAV1876: Uncharacterized protein, ⅛ MIC): −3.169
- Log(FC) ([10]; gene SAV1880: UPF0435 protein SAV1880, ⅛ MIC): −1.529
- Log(FC) ([10]; gene SAV2592: 3-dmu-9_3-mt domain-containing protein, ⅛ MIC): −1.105
- Log(FC) ([10]; gene acpP: Acyl carrier protein, ⅛ MIC): −1.463
- Log(FC) ([10]; gene coa (A0A0H3JPA2): Staphylocoagulase, ⅛ MIC): 4.524
- Log(FC) ([10]; gene esxA: Type VII secretion system extracellular protein A, ⅛ MIC): −1.698
- Log(FC) ([10]; gene ftnA: Bacterial non-heme ferritin, ⅛ MIC): −1.122
- Log(FC) ([10]; gene gate: Aspartyl/glutamyl-tRNA (Asn/Gln) amidotransferase subunit C, ⅛ MIC): −2.722
- Log(FC) ([10]; gene hit: Hit-like protein involved in cell-cycle regulation, ⅛ MIC): −1.253
- Log(FC) ([10]; gene lip1 (P65288): Lipase 1, ⅛ MIC): 1.631
- Log(FC) ([10]; gene mecA (A0A0H3JPA5): Penicillin binding protein 2 prime, ⅛ MIC): 1.378
- Log(FC) ([10]; gene moaD: Molybdopterin synthase sulfur carrier subunit, ⅛ MIC): −1.617
- Log(FC) ([10]; gene narG: Nitrate reductase (quinone), ⅛ MIC): −1.5746
- Log(FC) ([10]; gene nasD: Nitrite reductase, ⅛ MIC): −1.201
- Log(FC) ([10]; gene rsbV: Anti-sigma-B factor antagonist, ⅛ MIC): −1.199
- Log(FC) ([10]; gene sbi (Q931F4): Immunoglobulin-binding protein Sbi, ⅛ MIC): 1.71
- MIC ([11]; Staphylococcus aureus, lowest MIC over S. aureus strains, read-out: minimum inhibitory concentration (MIC) value as low as): 3.12 µg/mL (≈ 8.5 µM)
- ability to kill MRSA persisters [12]: inhibited the growth of persisters significantly
- CFU count ([12]; after 4 hrs exposure, 128×MIC): 2×10^7 CFU
- potency against the persister compared with positive controls ([12]; versus vancomycin and gentamicin): several fold more potent than the positive controls

SMILES: C=C(C)[C@@H]1CC=C2c3sc(-c4ccc(F)c(F)c4)nc3C[C@@H](C)[C@]2(C)C1 [Compound 21, (5R,5aS,7R)-2-(3,4-difluorophenyl)-7-isopropenyl-5,5a-dimethyl-5,6,7,8-tetrahydro-4H-benzo[g][1,3]benzothiazole]
- MIC [2]: > 100 µg/mL
- MIC [3]: > 100 µg/mL
- MIC [4]: 100 µg/mL (≈ 269 µM)
- MIC [5]: > 100 µg/mL
- MIC [6]: > 100 µg/mL
- MIC [7]: > 100 µg/mL
- MIC [8]: 1.56 µg/mL (≈ 4.2 µM)
- MIC [13]: > 100 µg/mL
- MIC [9]: > 100 µg/mL

Second part, led by results:

- MIC [2]: > 100 µg/mL
- MIC [3]: > 100 µg/mL
- MIC [4]: > 100 µg/mL
- MIC [5]: > 100 µg/mL
- MIC [6]: > 100 µg/mL
- MIC [7]: 25 µg/mL (≈ 65.9 µM)
- MIC [8]: > 100 µg/mL
- MIC [13]: 25 µg/mL (≈ 65.9 µM)
- MIC [9]: 12.5 µg/mL (≈ 32.9 µM)
SMILES: C=C(C)[C@@H]1CC=C2c3sc(-c4ccc5c(c4)OCO5)nc3C[C@@H](C)[C@]2(C)C1 [Compound 17, (5R,5aS,7R)-2-(1,3-benzodioxol-5-yl)-7-isopropenyl-5,5a-dimethyl-5,6,7,8-tetrahydro-4H-benzo[g][1,3]benzothiazole]
- activity against MRSA strains ([11]; two MRSA strains): moderate activity

- MIC [2]: 25 µg/mL (≈ 67.6 µM)
- MIC [3]: 25 µg/mL (≈ 67.6 µM)
- MIC [4]: 25 µg/mL (≈ 67.6 µM)
- MIC [5]: > 100 µg/mL
- MIC [6]: > 100 µg/mL
- MIC [7]: 50 µg/mL (≈ 135 µM)
- MIC [8]: > 100 µg/mL
- MIC [13]: 50 µg/mL (≈ 135 µM)
- MIC [9]: 12.5 µg/mL (≈ 33.8 µM)
SMILES: C=C(C)[C@@H]1CC=C2c3sc(-c4ccc(Cl)cc4)nc3C[C@@H](C)[C@]2(C)C1 [Compound 19, (5R,5aS,7R)-2-(4-chlorophenyl)-7-isopropenyl-5,5a-dimethyl-5,6,7,8-tetrahydro-4H-benzo[g][1,3]benzothiazole]

- MIC [2]: > 100 µg/mL
- MIC [3]: > 100 µg/mL
- MIC [4]: > 100 µg/mL
- MIC [5]: > 100 µg/mL
- MIC [6]: > 100 µg/mL
- MIC [7]: 50 µg/mL (≈ 121 µM)
- MIC [8]: > 100 µg/mL
- MIC [13]: > 100 µg/mL
- MIC [9]: > 100 µg/mL
SMILES: C=C(C)[C@@H]1CC=C2c3sc(-c4ccc(Br)cc4)nc3C[C@@H](C)[C@]2(C)C1 [Compound 20, (5R,5aS,7R)-2-(4-bromophenyl)-7-isopropenyl-5,5a-dimethyl-5,6,7,8-tetrahydro-4H-benzo[g][1,3]benzothiazole]
